Assay results reported in patent publication US6624192B1, “Process for production of diacetylrhein” (Madaus AG, priority 1991, dated 2003).

Tests used:
[1] = system: arthrosis induced by the intraarticular administration of vitamin A; assay: Vitamin A arthrosis in rabbits; assay type: in vivo, rabbit; conditions: for Clinical signs of arthrosis (disturbances of movement): 7 rabbits
Procedure: The effectiveness of diacetylrhein was determined in chronic inflammation models after oral administration. The following experimental models were used: cotton pellet granuloma in rats and arthrosis in rabbits induced by the intraarticular administration of vitamin A. b) Vitamin A arthrosis. An arthrosis-like joint change was initiated in two groups each of 10 rabbits (white New Zealanders) by means of three intraarticular injections of 30,000 IU of Vitamin A over the course of 9 days. 56 days later, 10 animals were treated with 3 mg of diacetylrhein/kg/day for 8 weeks. […] Furthermore, the curative action of diacetylrhein was compared with that of acetylsalicylic acid on each of 7 rabbits which, after 6 days pre-treatment with three times 10,000 IU Vitamin A and a 26 day treatment-free interval for 8 weeks, received either 5 mg of diacetylrhein/kg/day (experimental group) or 15 mg of acetylsalicylic acid/kg/day (positive control group) or remained untreated (negative control group). […] In the negative control group, during the following 8 weeks, the clinical signs of a manifest arthrosis increased.

cotton pellet granuloma = assay: Cotton pellet granuloma in rats; assay type: in vivo, rat
Procedure: The effectiveness of diacetylrhein was determined in chronic inflammation models after oral administration. The following experimental models were used: cotton pellet granuloma in rats and arthrosis in rabbits induced by the intraarticular administration of vitamin A. a) Cotton pellet granuloma in rats. Young sexually mature rats (n=10) were given 25, 50 or 100 mg diacetylrhein/kg or 5 mg indomethacin/kg or 100 mg acetylsalicylic acid/kg daily for 5 days. A control group only treated with water was also used. Implantation of the pellets took place on the first day of treatment.

gastric mucosa = assay: Gastric mucosa changes in the rat; assay type: in vivo
in vivo = conditions: rat, mouse, cat
[2] = system: coxarthrosis and gonarthrosis; assay: Clinical double-blind study against naproxen with placebo after-treatment; assay type: in vivo, patients; conditions: for Improvement in all test parameters (pain and movement symptoms, functional limitation, compatibility) in comparison with the initial values: 60 days
Procedure: 1. The action of diacetylrhein was investigated in coxarthrosis and gonarthrosis in 95 (49/46) patients in a double-blind study against naproxen and subsequent placebo after-treatment. The dosage administered was 50 mg of diacetylrhein twice daily or 750 mg of naproxen daily. The period of treatment was 60 days after a 7 day wash-out phase. The subsequent placebo treatment extended over 60 days.
Test parameters were the pain and movement symptoms according to a score scale, functional limitation and compatibility.

[3] = system: osteoarthrosis of the spine and of the knee; assay: Clinical open study with physiotherapy control; assay type: in vivo, patients
Procedure: 2. In an open running study with control, there was investigated the action of diacetylrhein against osteoarthrosis of the spine and of the knee in 70 patients (35/35). The dosage administered was 100 mg of diacetylrhein per day. The period of treatment was 60 days and the period of observation was 75 days. The test parameters were pain and movement limitation. The parameters were evaluated according to a score system. The control group comprised 35 patients in the case of which exclusively physiotherapeutic measures were carried out. Physiotherapy was also carried out in the diacetylrhein treatment group.

localised arthrosis = assay: Clinical single blind crossover study against naproxen; assay type: in vivo, patients
Procedure: 3. The action of diacetylrhein in the case of localised arthrosis in 20 patients was investigated in a single blind crossover study against naproxen. […] Subsequently, there followed a three day wash-out phase and a further treatment with 250 mg of naproxen twice daily for a further 20 days. In the second group, the reverse sequence was used. The period of treatment was, in all, 43 days. The test parameters of pain, compression pain, passive movement pain, functional limitation and swelling were determined according to a score system.

osteoarthrosis = assay: Clinical randomised double blind compatibility study (oesophagogastroduodenoscopic findings); assay type: in vivo, patients; conditions: after 4 weeks
Procedure: 4. The action of diacetylrhein was investigated in 23 patients (12/11) with osteoarthrosis in a randomised double blind study using the “double dummy technique” (compatibility study). The dosage administered was 50 mg of diacetylrhein twice daily and 250 mg of naproxen three times daily. The period of treatment was 4 weeks. The test parameters were the oesophagogastroduodenoscopic findings before and after the therapy. Only patients with normal mucosal findings or with slight mucosal lesions (grade 1) were used in the study.

[4] = crossover study, 43 days in all

Structure (SMILES): CC(=O)Oc1ccccc1C(=O)O [acetylsalicylic acid, reference compound]
- Clinical signs of arthrosis (disturbances of movement) ([1]; 15 mg/kg/day for 8 weeks, positive control group): improved significantly

Structure (SMILES): CC(=O)Oc1cccc2c1C(=O)c1c(OC(C)=O)cc(C(=O)O)cc1C2=O [diacetylrhein, Diacetylrhein]
- Fresh and dry weights of the granuloma (cotton pellet granuloma; rats n=10, oral, 25, 50 or 100 mg/kg daily for 5 days, in comparison with the control group): significant and clearly dosage-dependent reduction
- Weights of the thymus and adrenals (cotton pellet granuloma; rats, during the 5 days treatment): did not change
- Action on granuloma compared with reference drugs (cotton pellet granuloma; rats, oral, 100 mg diacetylrhein/kg daily for 5 days vs 5 mg indomethacin/kg or 100 mg acetylsalicylic acid/kg): corresponded to about the action of 5 mg indomethacin or of 100 mg acetylsalicylic acid
- Clinical signs of arthrosis (disturbances of movement) ([1]; 5 mg/kg/day for 8 weeks, curative): improved significantly
- Macroscopically and microscopically recognisable joint changes ([1]; rabbits, 3 mg/kg/day for 8 weeks, in comparison with the control group): significantly reduced
- Erosions of the gastric mucosa (gastric mucosa; single administration of 400 mg/kg): did not give rise to any erosions
- Mucosal damage (gastric mucosa; twice daily 100 mg/kg over 3 days): did not initiate any mucosal damage
- LD50 (in vivo): 119 to 339 mg/kg
- LD50 (in vivo; po): 1900 to 7900 mg/kg
- Improvement in all test parameters (pain and movement symptoms, functional limitation, compatibility) in comparison with the initial values ([2]; 50 mg twice daily, P<0.01): statistically significant rate of improvement
- Night pain and pressure pain after discontinuation, in comparison with the naproxen/placebo collective ([2]; 30 days after discontinuation, 5% level): difference was also verified
- Spontaneous pain and active and passive movement pain after discontinuation, in comparison with the naproxen/placebo collective ([2]; days 90 and 120, placebo after-treatment, P<0.01): statistically significant superiority
- Effect after discontinuation of the treatment ([3]; 100 mg per day for 60 days, observation 75 days): continuing therapeutic effect (hang-over effect)
- Pain and movement limitation (all parameters, score system) versus control group ([3]; 100 mg per day, 60 days, plus physiotherapy, control physiotherapy only): statistically significant superiority
- Pain, compression pain, passive movement pain, functional limitation and swelling (score system) in comparison with naproxen (localised arthrosis; 50 mg twice daily for 20 days vs 250 mg naproxen twice daily for 20 days, crossover): superiority
- Clinical laboratory parameters (localised arthrosis; [4]): no changes
- Side effects (localised arthrosis; [4]): No noteworthy side effects
- Patients with mucosal lesions of grade 2 (endoscopic findings) (osteoarthrosis; 50 mg twice daily, one case): 10%

Structure (SMILES): CC(C)Cc1ccc(C(C)C(=O)O)cc1 (stereo not shown) [ibuprofen]
- Erosions of the gastric mucosa (gastric mucosa; in vivo, 200 mg/kg): distinct mucosal damages

Structure (SMILES): COc1ccc2c(c1)c(CC(=O)O)c(C)n2C(=O)c1ccc(Cl)cc1 [indomethacin]
- Mucosal damage (gastric mucosa; in vivo, 10 mg/kg): certainly did
- Diameter of the erosions (gastric mucosa; in vivo, 10 mg/kg, 3 days): 1 to 3 mm
- Erosions of the gastric mucosa (gastric mucosa; in vivo, 20 mg/kg): distinct mucosal damages

Structure (SMILES): COc1ccc2cc([C@H](C)C(=O)O)ccc2c1 [naproxen, reference compound]
- Improvement in all test parameters (pain and movement symptoms, functional limitation, compatibility) in comparison with the initial values ([2]; 750 mg daily, P<0.05): statistically significant rate of improvement
- Patients with mucosal lesions of grade 2, 3 and 4 (endoscopic findings) (osteoarthrosis; 250 mg three times daily, 5 patients): 50%
